Values quoted from earlier work, collected in US12678439B2 (DOUGLAS PHARMACEUTICALS LIMITED, priority 2018, dated 2026).

solubility in water: virtually insoluble
SMILES: Cc1cccc(C)c1OCC(=O)N[C@@H](Cc1ccccc1)[C@@H](O)C[C@H](Cc1ccccc1)NC(=O)[C@H](C(C)C)N1CCCNC1=O (relative stereo) [Lopinavir, [1S-[1R*(R*), 3R*, 4R*]]—N-[4-[(2,6-dimethylphenoxyl0acetyl]amino]-3-hydroxy-5-phenyl-1-(phenylmethyl)pentyl]tetrahydro-alpha-(1-methylethyl)-2-oxo-1(2H)-pyrimidineacetamide]
